Data from US20100298352A1, “SMALL MOLECULE INHIBITORS OF CANCER STEM CELLS” (University of Pittsburgh - Of the Commonwealth System of …, priority 2009, published 2010).

Columns and labels:
Assay type in all cases: cell-based, human
Oct3/4-GFP+ MCF7 cells = assay: Screen for selective inhibition of Oct3/4-GFP+MCF7 cells (GFP level / cell viability, 384 well plates); conditions: initial screen; 3 day exposure, 5 μM, triplicate samples, relative changes in GFP levels
Procedure: MCF7 cells were used as the target population. Control cells consisted of Oct3/4-GFP-cells that were infected with a GFP-expressing lentivirus as a way of controlling for GFP expression. Initial screenings were performed in 384 well plates on triplicate samples. A fluorescent plate reader was used to quantify relative changes in GFP levels after a 3 day exposure to a 5 μM concentrations of each compound. […] These experiments were performed in 12 well plates in which 2000 cells/well were initially seeded and allowed to attach for one day. The following day (day 0), the medium was replaced with fresh medium containing the indicated concentrations of each compound. Cell counts were then performed manually on triplicate wells. Bars represent standard errors.
The cell viability assay was performed as follows:
Trypsinize cell and resuspend in MCF7 culture medium at a density of 4×10^4/ml Culture medium: alpha MEM, 10% FBS, 2 mM Glutamine, 1 mM Sodium Pyruvate, 1 mM non-essential amino acids, 100 U/ml Penicillin/Streptomycin
(1) dilute compounds to 30 μM using alpha MEM
(2) add 5 μl compounds to each well (final concentration 5 μM)
(3) add 25 μl cell suspension to each well (1000 cells/well)
(4) incubate cells with compounds for 72 hours at 37° C., 5% CO2
3. […] The plates were then read on SpectraMax M5 Microplate Reader using the wavelength of excitation 560 nm/emission 590 nm.

[1] = system: MCF7 cells and Oct3/4-GFP+MCF7 cell population; assay: Hoechst 33342 side population (SP) exclusion; conditions: exposure to 20 μM Reserpine; SP fractions of MCF7 and Oct3/4-GFP+MCF7 cells
Procedure: In other studies, Oct3/4-GFP+MCF7 cells were examined by qRT-PCR for expression of the breast cancer CSC markers CD133 and Oct3/4. After normalizing to GAPDH, the ratios of these transcripts in Oct3/4-GFP+MCF7 cells and non-CSC-MCF7 cells were 6.3 for CD 133 and 2.5 for Oct3/4. […] The SP is due to CSCs ability to exclude the dye Hoechst 33342 and reflects high expression of ABCG2 transporters such as MDR1 and BRCP. […] These fractions could also be reduced by >70% following exposure to 20 μM Reserpine, which inhibits ABC transporters. Moreover, the overall mean fluorescence intensity of the entire Oct3/4-GFP+MCF population was two-fold lower than that of the MCF7population. Thus, based on independent qRT-PCR assessments of CSC gene expression profiles and on uptake/exclusion of Hoechst 33342, one can conclude that the Oct3/4-GFP+MCF7 population consists of highly enriched and stable cells that are unable to differentiate into TACs.

[2] = system: Oct3/4-GFP+MCF7 cells versus unfractionated MCF7 cells; assay: Differential chemotherapeutic responses, viable adherent cell counts by trypan blue exclusion; conditions: FIG. 6; viable adherent cells over time
Procedure: FIG. 6. Differential chemotherapeutic responses of MCF7 and Oct3/4-GFP+MCF7 cells. 10^5 unfractionated, MCF7 cells (dotted line) or Oct3/4GFP+MCF7 cells (broken line) were seeded into 6 well plates and allowed to achieve ca. 30-50% confluence. The indicated concentrations of adriamycin, etoposide, 5-fluorouracil, cis-platinum, methotrexate, and taxol were then added (day 0). The total number of viable adherent cells was then determined at the indicated times by trypan blue exclusion. […] Note that in most cases Oct4/4-GFP+MCF7 actually grew in the presence of all agents. These experiments were repeated at least two additional times with similar outcomes.
Differential chemosensitivities of Oct3/4-GFP+MCF7 cells. It is believed that CSCs are more resistant to chemotherapeutic agents than TACs, thus at least partly accounting for the propensity of many tumors to relapse after an initial response. To test this idea, MCF7 cells and Oct3/4-GFP+MCF7 CSCs were exposed to six different chemotherapeutic agents commonly employed to treat breast cancer.

| SMILES | selectivity for Oct3/4-GFP+MCF7 cells over control GFP-lentivirus cells (Oct3/4-GFP+ MCF7 cells) | other results |
| --- | --- | --- |
| Cl.NC[C@@H]1O[C@H](C23CC4CC(CC(C4)C2)C3)Cc2c1ccc(O)c2O [A77636] | potentially selective agents | – |
| COC(=O)[C@H]1[C@H]2C[C@@H]3c4[nH]c5cc(OC)ccc5c4CCN3C[C@H]2C[C@@H](OC(=O)c2cc(OC)c(OC)c(OC)c2)[C@@H]1OC [Reserpine] | – | reduction of side population (SP) fractions [1]: > 70% |
| CC(=O)c1c(O)c(C)c(O)c(Cc2c(O)c3c(c(C(=O)/C=C/c4ccccc4)c2O)OC(C)(C)C=C3)c1O [Rottlerin, 5,7-dihydroxy-2,2-dimethyl-6-(2,4,6-trihydroxy-3-methyl-5-acetylbenzyl)-8-cinnamoyl-1,2-chromene] | potentially selective agents | – |
| CC(=O)O[C@H]1C(=O)[C@@]2(C)[C@H]([C@H](OC(=O)c3ccccc3)[C@]3(O)C[C@H](OC(=O)[C@H](O)[C@@H](NC(=O)c4ccccc4)c4ccccc4)C(C)=C1C3(C)C)[C@]1(OC(C)=O)CO[C@@H]1C[C@@H]2O [taxol] | – | sensitivity/resistance of Oct3/4-GFP+MCF7 cells relative to MCF7 cells [2]: significantly more sensitive |
